The test system of data set [1] is L. tropica MHOM/BR/73/5-ASKM. Kind of data set: Antileishmanial activity, L. tropica promastigotes. In kind it is cell-based, Leishmania tropica. The conditions noted are these: Leishmania tropica. As for the experimental part:
(§1) The antitrypanosomatid activity of the compounds was ascertained as follows. Leishmania parasites were cultured at 26 °C in SDM-79 medium supplemented with 10% fetal calf serum (FCS), and the antileishmanial activity was determined according to a previously published protocol for LUC-expressing and wild-type Leishmania ([Sereno et al., 2001], [Abbassi et al., 2008]). Trypanosoma brucei gambiense were grown at 26 °C in Cunningham's medium supplemented with 10% FCS, 2 mM GlutaMAX-1 (Gibco, USA), 100 U/ml penicillin, 100 μg/ml streptomycin and […] bovine hemin. The epimastigote form of Trypanosoma cruzi (strain Y cl7 scl2, lineage Tc2) (kindly provided by Philippe Truc and Christian Barnabé, UMR 177 IRD-CIRAD InterTryp, Montpellier, France) were grown at 26 °C in liver infusion tryptose (LIT) medium, supplemented with 10% FCS, 2 mM GlutaMAX™-I, 100 U/ml penicillin, 100 μg/ml streptomycin and bovine hemin (20 mg/l) (Gibco). The antitrypanosomatids activity was determined using a protocol that was initialy set up for wild-type Leishmania ([Abbassi et al., 2008]). To assess the drug activity on Toxoplasma gondii, confluent human foreskin fibroblast (HFF) monolayers were infected with YFP-type I Rh kindly provided by B. Striepen, see ([Striepen et al., 1998]) or Tomato-type II Pru kindly provided by N. Blanchard (Toulouse), expressing parasites at 5 × 10^4 per well, which were then centrifuged for 30 s at 1300 rpm and incubated for 30 min in a water bath at 37 °C to allow invasion. The wells were then washed three times with PBS to eliminate extracellular parasites, and the drugs were added at various concentrations ranging from 1 to 50 μM. After incubation for 24 h at 37 °C in a humidified atmosphere containing 5% CO2, the cells were fixed in 2.5% methanol-free formaldehyde (Tebu-bio)/PBS for 30 min at room temperature. Nuclei were stained with Hoechst 33258 (2 μg/ml, Molecular Probes) for 20 min and then washed three times with water for 10 min each time. The number of infected cells, i.e., cells harboring a parasitophorous vacuole, and the number of parasites per vacuole were determined using an Olympus ScanR microscope ( × 20 objective) and ScanR software. The parasitic index in % compared to the control was calculated as follows: (PI=((number of parasite/100 cells in treated wells) x (% of infected macrophage in treated well)/(number of parasite/100 cells in untreated wells) x (% of infected macrophage in untreated wells))*100).

Data set [2] has as its system T. brucei MHOM/CI/81/DAL967. Kind of data set: Antitrypanosomal activity, T. brucei. In kind it is cell-based, Trypanosoma brucei gambiense. The conditions noted are these: Trypanosoma brucei. How it is done:
as §1

The next data set has as its system T. gondi RH-YFP. In words: Anti-Toxoplasma activity in infected HFF monolayers, type I RH-YFP (parasitic index). In kind it is cell-based, Toxoplasma gondii.
Data set [3] in a line: Cytotoxicity, MTT assay, HFF. The conditions noted are these: human, HFF cells. In kind it is cell-based, human. As for the experimental part: (§2) The human monocytic cell line THP-1 was cultivated in RPMI medium supplemented with 10% FCS, 2 mM GlutaMAX, 100 U/ml penicillin, and 100 μg/ml streptomycin. HFF cells were cultivated in Dulbecco's modified Eagle's medium (DMEM) with Earle's salts containing 10% FCS, 10 mM HEPES, 1 mM sodium pyruvate, 2 mM GlutaMAX, 100 U/ml penicillin, and 100 μg/ml streptomycin. The THP-1 and HFF cells were maintained in a 5% CO2 incubator at 37 °C. Cytotoxicity was evaluated via the MTT assay, and the IC50 values were calculated using Prism software (Prism 4 for Mac OS X, version 5.0b, December, 2008).

Data set [4] can be described thus: Cytotoxicity, MTT assay, THP-1. In kind it is cell-based, human. The settings on record: human, THP-1 cells (monocytic cell line); MTT assay. How it is done: as §2
In another data set the test system is THP-1 cells. Kind of data set: Cytotoxicity, MTT assay, THP-1. In kind it is cell-based, human. How it is done: as §2
Data set [5] is described as follows: Cytotoxicity, HEPG2 cell line. In kind it is cell-based, human. The conditions noted are these: human, HepG2 cells.
For a further data set, the system named is HEPG2 cells. In words: Cytotoxicity, HEPG2 cell line. In kind it is cell-based, human.
The target of a further data set is T1, HDAC 8 (Homo sapiens, UniProt Q9BY41).
T1 construct: purchased Active Motif, Belgium
T1 sequence (Q9BY41 1-377): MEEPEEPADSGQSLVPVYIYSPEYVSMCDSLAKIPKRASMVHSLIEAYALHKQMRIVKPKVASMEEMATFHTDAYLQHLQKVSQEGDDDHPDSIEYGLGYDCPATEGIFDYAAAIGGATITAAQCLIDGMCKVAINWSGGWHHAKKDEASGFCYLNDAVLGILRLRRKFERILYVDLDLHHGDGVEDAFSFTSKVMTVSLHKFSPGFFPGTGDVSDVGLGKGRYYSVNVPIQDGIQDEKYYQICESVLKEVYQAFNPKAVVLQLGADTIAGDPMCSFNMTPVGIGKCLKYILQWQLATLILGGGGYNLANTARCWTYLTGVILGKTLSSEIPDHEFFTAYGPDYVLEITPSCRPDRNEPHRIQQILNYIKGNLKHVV
In words: Fluorometric HDAC assay, recombinant HDAC8. In kind it is biochemical. How it is done:
(§3) The HDACi effect against HeLa nuclear extracts and recombinant proteins were measured using a fluorometric HDAC assay kit (Active Motif, Belgium) according to the manufacturer's instructions. […] A negative control containing trichostatin A at a final concentration of 2 μM was analyzed for each independent experiment.

The subject of data set [6] is T. gondii deacetylase activity (total protein extract). Kind of data set: Deacetylase activity of total protein extract of T. gondii tachyzoites. In kind it is biochemical, Toxoplasma gondii. The conditions noted are these: 0.125 μM. As for the experimental part: as §3
HDAC activity was determined from total protein extracted from T. gondii.

Experimental findings from publication PMC6114082, “Synthesis of aminophenylhydroxamate and aminobenzylhydroxamate derivatives and in vitro screening for antiparasitic and histone deacetylase inhibitory activity” (International Journal for Parasitology: Drugs and Drug …, 2018) are described below.

Consider `COc1cccc(CC(=O)Nc2ccc(C(=O)NO)cc2)c1` [Compound 363, N-hydroxy-4-[2-(3-methoxyphenyl)acetamido]benzamide], for which the IC50 in data set [1] was above 60 µM; in data set [2], above 60 µM; with T. gondi RH-YFP (Toxoplasma gondii, read-out: anti-Toxoplasma activity IC50, range over strains, type I and type II strains together (abstract)), 0.35 to 2.25 µM; in [3], 105 ± 10.5 µM; in data set [4], 3.6 ± 0.5 µM; in data set [5], above 15 µM. For the same compound, at HDAC 8 (recombinant protein, read-out: rHDAC 8 IC50), the IC50 amounted to 0.863 ± 0.045 µM. For the same compound, the “IS^a selectivity index for T. gondi” value in the data set on T. gondi RH-YFP (IC50 HFF / IC50 T. gondi RH-YFP) was 300. Also, the “selectivity index, range over human cell lines” value with T. gondi RH-YFP (using different human cell lines) is 10–300. The “selectivity index, THP-1 cells vs T. gondii” value in the data set with THP-1 cells turned out to be 10. In addition, the “index of selectivity, HEPG2 vs T. gondii tachyzoites” value in the data set with HEPG2 cells worked out at 42. The “Fold, HDAC 8” value at HDAC 8 (363 as compared to SAHA) was determined as 0.26. The “inhibition of T. gondii deacetylase activity” value in data set [6] is recorded as 44%.
